Test results as given in patent US10285982B2, “3-(1H-pyrrolo[2,3-B]pyridin-2-yl)-1H-pyrazolo[3,4-C]pyridines and therapeutic uses thereof” (Samumed, LLC, priority 2015, dated 2019).

Experiments:
[1] = tested on: primary human mesenchymal stem cells (hMSCs); experiment: Chondrogenesis induction in hMSCs (nodule count); type: cell-based; details: 144 h, hMSC chondrogenesis, 6 days; for EC50: concentration required to induce 50% of TGF-β3 level, read-out: Conc. (nM) of 50% TGF-β3 activity; for Emax: relative to TGF-β3 (10 ng/mL) positive control, read-out: Max. Activity as % TGF-β3 activity
Method: Representative compounds were screened using primary human mesenchymal stem cells (hMSCs) to determine their ability to induce chondrogenesis (process by which cartilage is developed).
Primary human mesenchymal stem cells (hMSCs) were purchased from Lonza (Walkersville, Md.) and expanded in Mesenchymal Stem Cell Growth Media (Lonza). Cells between passage 3 and 6 were used for the experiments.
Each compound was dissolved in DMSO as a 10 mM stock and used to prepare compound source plates. Serial dilution (1:3, 6-point dose-response curves from 2700 nM to 10 nM) and compound transfer was performed using the ECHO 550 (Labcyte, Sunnyvale, Calif.) into 96-well clear bottom assay plates (Greiner Bio-One) with appropriate DMSO backfill for a final DMSO concentration of 0.03%. hMSCs were plated at 20,000 cells/well in 250 μL/well Incomplete Chondrogenic Induction Medium (Lonza; DMEM, dexamethasone, ascorbate, insulin-transferrin-selenium [ITS supplement], gentamycin-amphotericin [GA-1000], sodium pyruvate, proline and L-glutamine). TGF-β3 (10 ng/mL) was used as a positive control for differentiation while negative control wells were treated with 75 nL DMSO for normalization and calculating EC50 values. Cells were incubated at 37° C. and 5% CO2 for 6 days. To image chondrogenic nodules, the cells were fixed using 4% formaldehyde (Electron Microscopy Sciences), and stained with 2 μg/mL Rhodamine B (Sigma-Aldrich) and 20 μM Nile Red (Sigma-Aldrich) [Johnson K., et. al, A Stem Cell-Based Approach to Cartilage Repair, Science, (2012), 336(6082), 717-721]. The nodules imaged (4 images per well at 4× magnification) by excitation at 531 nm and emission at 625 nm and quantified using the CellInsight CX5 (Thermo Scientific). Number of nodules in each well was normalized to the average of 3 DMSO treated wells on the same plate using Excel (Microsoft Inc.). The normalized averages (fold change over DMSO) of 3 replicate wells for each compound concentration were calculated. Due to solubility limitations of some of the compounds, curve fitting was incomplete leading to inaccurate EC50 determinations.
Using TGF-β3 as a positive control, the concentration of representative compounds required to induce 50% levels of chondrogenesis is reported. In addition, the maximum activity of each compound and the respective dose that each compound reached maximum chondrogenesis activity is reported.

IL-6 (THP-1 cells) = experiment: IL-6 inhibition in LPS-stimulated THP-1 cells (HTRF); type: cell-based; details: Homo sapiens; for EC50: IL-6 in THP-1 cells, LPS 500 ng/mL, 22 hours; for inhibition at 10 µM: given where EC50 >10 μM, IL-6, THP-1 cells, LPS, read-out: percent inhibition at 10 μM
How it was run: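 THP-1 cells, serum-reduced (1% FBS) for 24 h, were preincubated with compound (10-point 1:3 series from 10 μM, 0.1% DMSO) for 2 h, then stimulated with 500 ng/mL LPS for 22 h at 37° C. IL-6 was read by HTRF (665/620 nm ratio) and normalized to DMSO. EC50 from four-parameter fit; % inhibition at 10 μM given if EC50 >10 μM.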

EC50 [1] [nM] | EC50 (IL-6 (THP-1 cells)) [µM] | Structure (SMILES) | Emax [1] [%] | inhibition at 10 µM (IL-6 (THP-1 cells)) [%]
300 | 7.87 | CN1CCN(c2ccnc3[nH]c(-c4n[nH]c5cnc(-c6cncc(CNCC7CCCC7)c6)cc45)cc23)CC1 [Compound 249, 1-Cyclopentyl-N-((5-(3-(4-(4-methylpiperazin-1-yl)-1H-pyrrolo[2,3-b]pyridin-2-yl)-1H-pyrazolo[3,4-c]pyridin-5-yl)pyridin-3-yl)methyl)methanamine] | 150 | –
– | 0.529 | CC(C)CC(=O)Nc1cncc(-c2cc3c(-c4cc5cccnc5[nH]4)n[nH]c3cn2)c1 [Compound 254, N-(5-(3-(1H-Pyrrolo[2,3-b]pyridin-2-yl)-1H-pyrazolo[3,4-c]pyridin-5-yl)pyridin-3-yl)-3-methylbutanamide] | 40 | –
– | 0.023 | c1cncc(-c2cc3c(-c4cc5cccnc5[nH]4)n[nH]c3cn2)c1 [Compound 256, 5-(Pyridin-3-yl)-3-(1H-pyrrolo[2,3-b]pyridin-2-yl)-1H-pyrazolo[3,4-c]pyridine] | 28 | –
– | 3.06 | O=C(Nc1cncc(-c2cc3c(-c4cc5cccnc5[nH]4)n[nH]c3cn2)c1)C1CC1 [Compound 272, N-(5-(3-(1H-Pyrrolo[2,3-b]pyridin-2-yl)-1H-pyrazolo[3,4-c]pyridin-5-yl)pyridin-3-yl)cyclopropanecarboxamide] | 18 | –
10 | > 10 | CCCC(=O)Nc1cncc(-c2cc3c(-c4cc5c(-c6cc(F)cc(NCCN(C)C)c6)ccnc5[nH]4)n[nH]c3cn2)c1 [Compound 465, N-(5-(3-(4-(3-((2-(Dimethylamino)ethyl)amino)-5-fluorophenyl)-1H-pyrrolo [2,3-b]pyridin-2-yl)-1H-pyrazolo[3,4-c]pyridin-5-yl)pyridin-3-yl)butyramide] | 162 | 21.5
– | > 10 | CN(C)CCNc1cc(F)cc(-c2ccnc3[nH]c(-c4n[nH]c5cnc(-c6cncnc6)cc45)cc23)c1 [Compound 475, N^1-(3-Fluoro-5-(2-(5-(pyrimidin-5-yl)-1H-pyrazolo[3,4-c]pyridin-3-yl)-1H-pyrrolo[2,3-b]pyridin-4-yl)phenyl)-N^2,N^2-dimethylethane-1,2-diamine] | 17 | 6.3
10 | > 10 | CN1CCN(c2ccnc3[nH]c(-c4n[nH]c5cnc(-c6cn[nH]c6)cc45)cc23)CC1 [Compound 635, 3-(4-(4-Methylpiperazin-1-yl)-1H-pyrrolo[2,3-b]pyridin-2-yl)-5-(1H-pyrazol-4-yl)-1H-pyrazolo[3,4-c]pyridine] | 63 | 10.9
100 | > 10 | CN1CCN(c2ccnc3[nH]c(-c4n[nH]c5cnc(-c6cncc(NC(=O)CC7CCNCC7)c6)cc45)cc23)CC1 [Compound 641, N-(5-(3-(4-(4-Methylpiperazin-1-yl)-1H-pyrrolo[2,3-b]pyridin-2-yl)-1H-pyrazolo[3,4-c]pyridin-5-yl)pyridin-3-yl)-2-(piperidin-4-yl)acetamide] | 341 | 29.6

Structure (SMILES) | EC50 [1] [nM] | EC50 (IL-6 (THP-1 cells)) [µM] | Emax [1] [%] | inhibition at 10 µM (IL-6 (THP-1 cells)) [%]
FC1(F)CCN(Cc2cncc(-c3cc4c(-c5cc6cccnc6[nH]5)n[nH]c4cn3)c2)C1 [Compound 278, 5-(5-((3,3-Difluoropyrrolidin-1-yl)methyl)pyridin-3-yl)-3-(1H-pyrrolo[2,3-b]pyridin-2-yl)-1H-pyrazolo[3,4-c]pyridine] | – | 0.029 | 45 | –
